Data reported in PMC9704104, “Towards safer anti-inflammatory therapy: synthesis of new thymol–pyrazole hybrids as dual COX-2/5-LOX inhibitors” (Journal of Enzyme Inhibition and Medicinal Chemistry, 2022).
Where “and” joins values, the source holds several entries; their conditions need not be identical. Equal values may be shown once. Entries after “also recorded” stand apart in the source; their conditions may differ. Read-outs that look alike come from different tables or passages of the source.

Assays:
[1] = system: gastric mucosa; assay: In vivo gastric ulcerogenic activity (gross examination of gastric mucosa); conditions: fasted rats, 60 mg/kg orally, six hours after treatment, 60 mg/kg
Experimental: Compounds were evaluated for acute gastric ulcerogenic effect in adult female Wistar rats. Gross examination was performed for any evidence of hyperaemia, haemorrhage, definite haemorrhagic erosion, or ulcer according to reported procedures[49]^,[51]
Compounds were evaluated for acute gastric ulcerogenic effect in adult female Wistar rats. Rats (150–250 g)
were divided into groups of six rats each and test compounds, references or DMSO as control were
administered orally at a dose of 60 mg/kg body weight (three times the previously used dose). Six hours after
the treatment they were sacrificed under deep ether anesthesia and their stomachs were removed and opened
through greater curvature, washed under running water and fixed in saline solution. Gross examination was
performed for any evidence of hyperemia, hemorrhage, definite hemorrhagic erosion or ulcer 6, 7 (Approved
The degree of ulcerogenicity was determined by viewing the gastric epithelial ulceration using a 5x
magnifying lens and rated by ulcer score.
Ulcer score was used to grade the incidence and severity of the lesions such as:
1) Shedding of epithelium—10
2) Petechial and frank hemorrhages—20
4) More than two ulcers—40

[2] = system: formalin-induced rat paw oedema; assay: Formalin-induced paw oedema test (acute inflammation model); type: in vivo; conditions: for Volume of oedema (ml) 4h: 4 h after formalin; for Volume of oedema (ml) 4h / inhibition in vivo at 5 mg/kg / % inhibition of paw oedema compared with reference drugs (in words) / Volume of oedema (ml) 0: 5 mg/kg orally; for inhibition in vivo at 5 mg/kg: Rattus norvegicus, po; for inhibition in vivo at 5 mg/kg / % inhibition of paw oedema compared with reference drugs (in words): 4 h; for % Relative potency (4h) celecoxib, Mean ± SD / % Relative potency (4h) celecoxib: relative to % inhibition of celecoxib at 4 h; for % Relative potency (4h) diclofenac, Mean ± SD / % Relative potency (4h) diclofenac: relative to % inhibition of diclofenac at 4 h; for % inhibition of paw oedema compared with reference drugs (in words): comparison with celecoxib or diclofenac sodium
Experimental: Animals Adult female albino rats weighing 150-250 g were used (Experimental Animal Centre in Alexandria University). All animals accessed to food and water ad libitum and were housed in 12 h dark/light cycle in a controlled condition at 23-250C. They were allowed to acclimatize for 1 week prior to experimentation. Procedures involving animals and their care were conducted in conformity with the Guide for the Care and Use of Laboratory Animals published by US National Institute of Health4 (NIH publication No. 83-23, revised) and following the ethical guidelines of Alexandria University on laboratory animals. In all tests, adequate considerations were adopted to reduce pain or discomfort of animals (Approved by AlexU-IACUC) 3. […]
Formalin-induced paw edema test (acute inflammation model):
A solution of freshly prepared formalin 5% was used as a phlogistic agent. A mark was made on the lateral malleolus of the rats’ paws delineating the injection sites. The initial volume of paw was measured by means of digital calibrated Vernier caliper .
After 45 minutes, 40 μl formalin were injected subcutaneously into the sub plantar tissue of the right hind paw of all groups under light ether anesthesia . An equal volume of saline was injected into the left hind paw and served as internal control for the degree of inflammation in the right hind paw. 5, 6 The volume of paw was measured in different treatment groups, 4 h following the formalin injection and the amount of increase in paw volume (edema volume) was calculated by subtracting the volumes before and 4 h after the injection of formalin. Edema was expressed as an increase in the volume of paw, and the percentage of edema inhibition (or percent protection against inflammation) for each rat and each group was calculated according to the following equation: […]
Where Vt is the mean volume of edema at specific time interval (4 h) and Vo is the mean volume of edema […]
Relative potency of the tested compounds was expressed as % inhibition of edema for the tested compounds

[3] = system: 5-LOX; assay: In vitro 5-LOX inhibitory assay (Abnova 5-LOX inhibitor screening assay kit); type: biochemical
Excerpt: The newly synthesised compounds were screened for their ability to inhibit 5-LOX enzymes. […] (Page: S21, Supplementary file). […]
In vitro LOX inhibitory assay
Inhibitor Screening Assay Kit detects and measures the hydroperoxides produced in the lipoxygenation reaction using a purified LOX. The detection reaction is equally sensitive to hydroperoxides at various positions within the fatty acid and will work with fatty acids of any carbon length. It is thus a general detection method for 5-LOX and can be used to screen libraries of compounds for those which inhibit 5 -LOX enzymes.
1) Blank Wells- add 100 µL of assay buffer to at least two wells.
2) Positive Control Wells- Lipoxygenase (15-LO standard) add 90 µL 15-LO and 10 µL of assay buffer […]
3) 100% Initial Activity Wells- add 90 µL 15-LO and 10 µL of solvent (DMSO) (the same solvent to dissolve the inhibitor) to two wells. The 100% initial activity wells should result in approximately 10 […]
4) Inhibitor Wells- add 90 µL of sample and I10 µL of inhibitor to two wells.
5) Initiate the reaction by adding 10 µL of substrate (either arachidonic acid or linoleic acid) to all the wells. Place the 96-well plate on a shaker for at least five minutes.
6) Add 100 µL of chromogen to each well to stop enzyme catalysis and develop the reaction. Cover with a plate cover and place the 96-well plate on a shaker for at least five minutes.
7) Remove the cover and read the absorbance at 490-500 nm using a plate reader.
Inhibitors were dissolved in DMSO. The inhibitors were added to the assay in a final volume of 10 µL before initiating with substrate. Three concentrations were prepared (25, 50 and 100 µM) to determine the concentration produced 50% enzyme inhibition.
2) The absorbance of blank wells was subtracted from absorbance of the 100% Initial activity and the […]

[4] = target: T1, COX-1 (Ovis aries, UniProt P05979); assay: In vitro COX-1 inhibitory assay (Cayman colorimetric COX (ovine) inhibitor screening assay kit); type: biochemical; conditions: mean of three replicates ± SD
T1 construct: purchased Cayman chemicals 560131
T1 sequence (P05979 25-600): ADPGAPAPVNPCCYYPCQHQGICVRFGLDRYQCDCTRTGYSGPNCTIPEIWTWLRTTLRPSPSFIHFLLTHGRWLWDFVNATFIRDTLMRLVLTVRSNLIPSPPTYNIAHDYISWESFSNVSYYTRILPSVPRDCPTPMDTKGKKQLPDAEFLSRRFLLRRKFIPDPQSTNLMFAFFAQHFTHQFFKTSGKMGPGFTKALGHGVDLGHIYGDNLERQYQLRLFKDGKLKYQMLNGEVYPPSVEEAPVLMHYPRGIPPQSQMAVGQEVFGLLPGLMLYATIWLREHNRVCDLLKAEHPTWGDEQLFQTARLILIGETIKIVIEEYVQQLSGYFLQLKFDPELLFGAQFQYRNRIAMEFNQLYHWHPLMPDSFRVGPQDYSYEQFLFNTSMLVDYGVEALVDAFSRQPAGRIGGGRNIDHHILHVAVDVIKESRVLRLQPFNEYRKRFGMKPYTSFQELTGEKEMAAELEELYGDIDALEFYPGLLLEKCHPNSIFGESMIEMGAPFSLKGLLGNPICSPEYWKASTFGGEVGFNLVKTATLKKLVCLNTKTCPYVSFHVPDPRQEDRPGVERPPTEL
Experimental: (Page: S20, Supplementary file).
Anti-inflammatory activity
In vitro COX-1 and COX-2 inhibitory assay […]
supplied by Cayman chemicals, Ann Arbor, MI, USA according to reported method 1. The colorimetric COX inhibitor screening assay utilizes the peroxidase component of cyclooxygenase. The peroxidase activity was assayed calorimetrically by monitoring the appearance of oxidized N,N,N',N'-tetramethyl-1,4-phenylenediamine (TMPD) at 590nm. The appearance of reagent was carried out following the instructions […]
The half- maximal inhibitor concentrations (IC50µM) were determined and the selectivity index (SI) values were calculated as IC50 (COX-1)/IC50 (COX-2).
1) Background wells- 160 µL of assay buffer and 10 µL of heme were added to background wells.
2) The 100% Initial activity wells- 150 µL of assay buffer, 10 µL of heme and 10 µL of enzyme (COX-1 or COX-2) were added.
3) Inhibitor well- 150 µL of assay buffer, 10 µL of heme and 10 µL of enzyme were added.
4) 10 µL of inhibitor (3 concentrations) in DMSO was added to the inhibitor wells to yield a final […]
5) 10 µL of solvent (DMSO) was added to the 100% Initial activity wells and background wells.
7) 20 µL of colorimetric substrate solution (TMPD) was added to all wells.
8) 20 µL of arachidonic acid was added to all wells to yield a final concentration of 100 µM.
10) The absorbance was measured at 590 nm using a plate reader.
The calculations were carried out in the following manner:
1) The average absorbance of all samples was determined.
2) The absorbance of background wells was subtracted from absorbance of the 100% Initial activity […]
3) Percent inhibition = (100% Initial activity – Inhibitor wells/ 100% Initial activity)∗ 100 […]
Place the 96-well plate on a shaker for at least five minutes. […]

[5] = individual rats 1-3, read-out: % Inhibition of oedema volume

SMILES	melting point	IC50 [3]	IC50 [4]	Gross appearance of gastric mucosa (ulcerogenic potential) [1]	Volume of oedema (ml) 4h ([2]; individual rats 1-3, 5 mg/kg)	inhibition in vivo at 5 mg/kg [2, 5]	% Relative potency (4h) celecoxib, Mean ± SD ([2]; group mean ± SD)	% Relative potency (4h) celecoxib ([2]; individual rats 1-3)	% Relative potency (4h) diclofenac, Mean ± SD ([2]; group mean ± SD)	% Relative potency (4h) diclofenac ([2]; individual rats 1-3)	% inhibition of paw oedema compared with reference drugs (in words) ([2]; 5 mg/kg)	Volume of oedema (ml) 0 ([2]; individual rats 1-3, 5 mg/kg)	% inhibition of paw oedema compared with reference drugs (in words) [2]	inhibition in vivo at 5 mg/kg ([2]; group mean ± SD, read-out: % Inhibition of oedema volume, Mean ± SD)
COc1ccc(-c2cc(C(=O)NN=Cc3c(C)ccc(C(C)C)c3O)[nH]n2)cc1 [Compound 4c, N'-(2-Hydroxy-3-isopropyl-6-methylbenzylidene)-3–(4-methoxyphenyl)-1H-pyrazole-5-carbohydrazide]	246 to 248 °C	2.91 ± 0.068 µM	10.22 ± 0.046 µM	variable degrees of hyperaemia; also recorded: Hyperemia without gross ulceration	6.20 mL	66.2%	165.7 ± 20.01%	188.50% and 151.20% and 157.30%	115.6 ± 21.54%	140.0% and 107.60% and 99.20%	–	–	–	–
Cc1ccc(C(C)C)c(O)c1C=NNC(=O)c1cc(-c2ccccc2)n[nH]1 [Compound 4a, N'-(2-Hydroxy-3-isopropyl-6-methylbenzylidene)-3-phenyl-1H-pyrazole-5-carbohydrazide]	–	3.05 ± 0.067 µM	10.3 ± 0.1 µM	No gross ulceration	–	84.2%	–	239.70% and 192.90% and 244.0%	156.4 ± 20.52%	178.10% and 137.30% and 153.80%	–	–	double % inhibition exhibited by Celecoxib	81.9%

Continued, in another order:

melting point	IC50 [3]	IC50 [4]	SMILES	Gross appearance of gastric mucosa (ulcerogenic potential) [1]	Volume of oedema (ml) 4h ([2]; individual rats 1-3, 5 mg/kg)	inhibition in vivo at 5 mg/kg [2, 5]	% Relative potency (4h) celecoxib, Mean ± SD ([2]; group mean ± SD)	% Relative potency (4h) celecoxib ([2]; individual rats 1-3)	% Relative potency (4h) diclofenac, Mean ± SD ([2]; group mean ± SD)	% Relative potency (4h) diclofenac ([2]; individual rats 1-3)	% inhibition of paw oedema compared with reference drugs (in words) ([2]; 5 mg/kg)	Volume of oedema (ml) 0 ([2]; individual rats 1-3, 5 mg/kg)	% inhibition of paw oedema compared with reference drugs (in words) [2]	inhibition in vivo at 5 mg/kg ([2]; group mean ± SD, read-out: % Inhibition of oedema volume, Mean ± SD)
–	1.58 ± 0.026 µM	13.61 ± 0.096 µM	Cc1ccc(C(C)C)c(O)c1C=NNC(=O)c1cc(-c2ccc(Br)cc2)n(-c2ccc(S(N)(=O)=O)cc2)n1 [Compound 8b, 4-(5-(4-Bromophenyl)-3-(2-(2-hydroxy-3-isopropyl-6-methylbenzylidene)hydrazine-1-carbonyl)-1H-pyrazol-1-yl)benzene sulphonamide]	No gross ulceration	–	40.1%	–	114.10% and 86.90% and 93.30%	68.50 ± 14.20%	84.80% and 61.90% and 58.80%	nearly equal activity to celecoxib; also recorded: slightly less % inhibition than that of Diclofenac sodium	5.02 mL	–	–
218 to 220 °C	2.78 ± 0.016 µM	12.6 ± 0.46 µM	COc1ccc(-c2cc(C(=O)NN=Cc3c(C)ccc(C(C)C)c3O)nn2-c2ccc(Cl)cc2)cc1 [Compound 8i, 5-(4-Methoxyphenyl)-1-(4-chlorophenyl)-N'-(2-hydroxy-3-isopropyl-6-methylbenzylidene)-1H-pyrazole-3-carbohydrazide]	variable degrees of hyperaemia; also recorded: Hyperemia without gross ulceration	–	67.6%	–	192.30% and 183.30% and 210.70%	135.4 ± 6.60%	142.90% and 130.50% and 132.80%	–	5.30 mL	double % inhibition exhibited by Celecoxib	–
245 to 247 °C	1.91 ± 0.053 µM	12.87 ± 0.097 µM	COc1ccc(-c2cc(C(=O)NN=Cc3c(C)ccc(C(C)C)c3O)nn2-c2ccc(S(N)(=O)=O)cc2)cc1 [Compound 8c, 4-(3-(2-(2-Hydroxy-3-isopropyl-6-methylbenzylidene)hydrazine-1-carbonyl)-5-(4-methoxyphenyl)-1H-pyrazol-1-yl)benzenesulfonamide]	–	5.80 mL	60.4%	170.0 ± 9.73%	171.80% and 159.50% and 178.70%	117.9 ± 8.39%	127.60% and 113.60% and 112.60%	–	–	–	–
–	1.6 ± 0.042 µM	12.1 ± 0.16 µM	Cc1ccc(C(C)C)c(O)c1C=NNC(=O)c1cc(-c2ccccc2)n(-c2ccc(Cl)cc2)n1 [Compound 8g, 1-(4-Chlorophenyl)-N'-(2-hydroxy-3-isopropyl-6-methylbenzylidene)-5-phenyl-1H-pyrazole-3-carbohydrazide]	No gross ulceration	–	52.7%	148.6 ± 2.99%	150.0% and 145.20% and 150.70%	103.3 ± 8.20%	111.40% and 103.40% and 95.0%	–	–	–	–
